Tests used:
[1] = Oral bioavailability studies in fasted dogs; conditions: dog, in vivo
Description: The following compositions comprising compound I were prepared and the bioavailability of each composition was determined in fasted dogs. Dogs (beagle dogs, mixed sexes, weighing about 10 kg) were fasted for at least 12 hours before dosing. Food was returned after the last blood sample was collected (24 hours). Water was available at all times. A dose equivalent to 50 or 100 milligrams of compound I was administered by mouth to each dog, followed with either 20 or 50 ml of water, respectively, through a feeding tube. […] Blood samples of 3 ml volume were anti-coagulated with EDTA. The plasma was separated by centrifugation and frozen until analyzed. Blood plasma concentrations of compound I were determined by HPLC. Bioavailability was calculated as follows: % Bioavailability=[(AUC)oral×D/(AUC)intravenous]×100. (AUC)oral and (AUC)intravenous are the areas under the curve for the plasma concentration-time profiles following oral and intravenous administration, respectively. D is a correlation factor for the difference between intravenous administration (3 mg/kg) and oral administration (about 10 mg/kg).

salt depleted dogs = assay: Blood pressure lowering in salt depleted dogs; format: in vivo, dog; conditions: after oral or intravenous administration

times more bioavailable as soft elastic gelatin encapsulated solution compared to standard solid capsule or tablet compositions [1]: 2.1-5.2 times
Compound: CC(C)C[C@H](O)[C@H](O)[C@H](CC1CCCCC1)NC(=O)[C@H](Cc1cscn1)NC(=O)[C@H](Cc1ccccc1)CS(=O)(=O)N1CCN(C)CC1 [compound I, (2S)-2-Benzyl-3-(1-methyl-piperazin-4-ylsulfonyl)propionyl-(L)-(4-Thiazolyl)Ala Amide of (2S, 3R, 4S)-2-Amino-1-cyclohexyl-3,4-dihydroxy-6-methylheptane]
blood pressure (salt depleted dogs): reduces blood pressure

From patent US5178877A, “Encapsulated renin inhibitor composition” (priority 1991, dated 1993)
